# Experimental data as given in US20250206724A1, “SUBSTITUTED 3-AMINO INDAZOLE DERIVATIVES AS KINASE INHIBITORS” (NERVIANO MEDICAL SCIENCES S.R.L., priority 2022, published 2025).
# Counter-ions that a name gives are not always drawn.
# Biological target: T1, CDK11A (Homo sapiens, UniProt Q9UQ88)
# T1 sequence (Q9UQ88 346-783): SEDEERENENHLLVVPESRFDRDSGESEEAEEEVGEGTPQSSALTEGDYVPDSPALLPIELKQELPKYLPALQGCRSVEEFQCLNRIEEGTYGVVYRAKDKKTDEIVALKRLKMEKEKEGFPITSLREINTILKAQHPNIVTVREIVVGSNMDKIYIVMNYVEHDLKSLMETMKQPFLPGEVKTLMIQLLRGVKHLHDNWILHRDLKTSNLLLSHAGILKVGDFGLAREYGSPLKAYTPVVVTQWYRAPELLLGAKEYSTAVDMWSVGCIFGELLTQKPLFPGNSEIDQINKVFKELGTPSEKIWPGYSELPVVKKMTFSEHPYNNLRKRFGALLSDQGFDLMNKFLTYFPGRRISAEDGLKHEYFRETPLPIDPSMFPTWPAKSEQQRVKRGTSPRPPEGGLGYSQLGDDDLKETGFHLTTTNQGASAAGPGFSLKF
# Conditions: displacement of SNS-032-Atto590 probe (0.002 μM) from CDK11A-p58 (0.032 uM), fluorescence polarization
# 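Also: compound preincubated 30 min with CDK11A-p58, then probe added and polarization (mP) read 15 min later, 0% displacement is probe plus enzyme, 100% is probe alone.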
row,DC50 [nM],Compound
1,35,"O=C(Nc1n[nH]c2ccc(-c3cc(F)ccc3F)cc12)[C@@H]1CCCNC1 [cpd 35, (3R)-N-[5-(2,5-Difluorophenyl)-1H-indazol-3-yl]piperidine-3-carboxamide hydrochloride]"
2,42,"O=C(Nc1n[nH]c2ccc(-c3c(F)cccc3Cl)cc12)[C@@H]1CCCNC1 [compound 172, (3R)-N-[5-(2-Chloro-6-fluorophenyl)-1H-indazol-3-yl]piperidine-3-carboxamide hydrochloride]"
3,57,"COC(=O)c1cc(-c2ccc3[nH]nc(NC(=O)[C@@H]4CCCNC4)c3c2)c(Cl)cc1Cl [cpd 42, Methyl 2,4-dichloro-5-(3-{[(3R)-piperidin-3-ylcarbonyl]amino}-1H-indazol-5-yl)benzoate hydrochloride]"
4,125,"Cc1ccc(-c2ccc3[nH]nc(NC(=O)[C@@H]4CCCNC4)c3c2)c(Cl)c1 [cpd 8, (3R)-N-[5-(2-Chloro-4-methylphenyl)-1H-indazol-3-yl]piperidine-3-carboxamide hydrochloride]"
5,177,"O=C(Nc1n[nH]c2ccc(-c3c(Cl)cccc3Cl)cc12)[C@H]1CCCNC1 [compound 170, (3S)-N-[5-(2,6-Dichlorophenyl)-1H-indazol-3-yl]piperidine-3-carboxamide hydrochloride]"
6,100,"CC(C)OC(=O)c1ccc(Cl)c(-c2ccc3[nH]nc(NC(=O)[C@@H]4CCCNC4)c3c2)c1 [cpd 56, Propan-2-yl 4-chloro-3-(3-{[(3R)-piperidin-3-ylcarbonyl]amino}-1H-indazol-5-yl)benzoate hydrochloride]"
7,55,"CCOc1ccc(F)c(-c2ccc3[nH]nc(NC(=O)[C@@H]4CCCNC4)c3c2)c1 [cpd 22, (3R)-N-[5-(5-Ethoxy-2-fluorophenyl)-1H-indazol-3-yl]piperidine-3-carboxamide hydrochloride]"
8,27,"CC(=O)c1ccc(F)c(-c2ccc3[nH]nc(NC(=O)[C@@H]4CCCNC4)c3c2)c1 [cpd 19, (3R)-N-[5-(5-Acetyl-2-fluorophenyl)-1H-indazol-3-yl]piperidine-3-carboxamide hydrochloride]"
9,71,"O=C(Nc1n[nH]c2ccc(OCCF)cc12)[C@@H]1CCCNC1 [cpd 227, (3R)-N-[5-(2-Fluoroethoxy)-1H-indazol-3-yl]piperidine-3-carboxamide hydrochloride]"
10,19,"CCC(=O)c1ccc(Cl)c(-c2ccc3[nH]nc(NC(=O)[C@@H]4CCCNC4)c3c2)c1 [cpd 43, (3R)-N-[5-(2-Chloro-5-propanoylphenyl)-1H-indazol-3-yl]piperidine-3-carboxamide hydrochloride]"
11,42,"O=C(Nc1n[nH]c2ccc(-c3cc(F)ccc3Cl)cc12)[C@@H]1CCCNC1 [cpd 52, (3R)-N-[5-(2-Chloro-5-fluorophenyl)-1H-indazol-3-yl]piperidine-3-carboxamide hydrochloride]"
12,25,"COc1ccc(Cl)c(-c2ccc3[nH]nc(NC(=O)[C@@H]4CCCNC4)c3c2)c1 [cpd 18, (3R)-N-[5-(2-Chloro-5-methoxyphenyl)-1H-indazol-3-yl]piperidine-3-carboxamide hydrochloride]"
13,72,"CC(=O)c1ccc(F)c(-c2ccc3[nH]nc(NC(=O)C4CCCNC4)c3c2)c1 (stereo not drawn) [cpd 16, N-[5-(5-Acetyl-2-fluorophenyl)-1H-indazol-3-yl]piperidine-3-carboxamide hydrochloride]"
14,23,"O=C(Nc1n[nH]c2ccc(-c3ccc(O)cc3Cl)cc12)[C@@H]1CCCNC1 [cpd 6, (3R)-N-[5-(2-chloro-4-hydroxyphenyl)-1H-indazol-3-yl]piperidine-3-carboxamide hydrochloride]"
15,20,"O=C(Nc1n[nH]c2ccc(-c3cc(-c4ncon4)ccc3Cl)cc12)[C@@H]1CCCNC1 [cpd 58, (3R)-N-{5-[2-Chloro-5-(1,2,4-oxadiazol-3-yl)phenyl]-1H-indazol-3-yl}piperidine-3-carboxamide dihydrochloride]"
16,36,"O=C(Nc1n[nH]c2ccc(-c3cc(Cl)ccc3Cl)cc12)[C@@H]1CCCNC1 [cpd 13, (3R)-N-[5-(2,5-Dichlorophenyl)-1H-indazol-3-yl]piperidine-3-carboxamide hydrochloride]"
17,46,"O=C(Nc1n[nH]c2ccc(-c3cc(Cl)ccc3F)cc12)[C@@H]1CCCNC1 [cpd 21, (3R)-N-[5-(5-Chloro-2-fluorophenyl)-1H-indazol-3-yl]piperidine-3-carboxamide hydrochloride]"
18,18,"Nc1ccc(-c2ccc3[nH]nc(NC(=O)[C@@H]4CCCNC4)c3c2)c(Cl)c1 [cpd 5, (3R)-N-[5-(4-Amino-2-chlorophenyl)-1H-indazol-3-yl]piperidine-3-carboxamide dihydrochloride]"
19,94,"COc1ccc(-c2ccc3[nH]nc(NC(=O)[C@@H]4CCCNC4)c3c2)c(C(F)(F)F)c1 [cpd 31, (3R)-N-{5-[4-Methoxy-2-(trifluoromethyl)phenyl]-1H-indazol-3-yl}piperidine-3-carboxamide hydrochloride]"
20,45,"COC(=O)c1ccc(Cl)c(-c2ccc3[nH]nc(NC(=O)[C@@H]4CCCNC4)c3c2)c1Cl [cpd 57, Methyl 2,4-dichloro-3-(3-{[(3R)-piperidin-3-ylcarbonyl]amino}-1H-indazol-5-yl)benzoate hydrochloride]"

# Further lines, the molecule ahead of its results:
row,Compound,DC50 [nM]
1,"Cc1ccc(F)c(-c2ccc3[nH]nc(NC(=O)C4CCN(C)CC4)c3c2)c1Cl [cpd 73, N-[5-(2-Chloro-6-fluoro-3-methylphenyl)-1H-indazol-3-yl]-1-methylpiperidine-4-carboxamide hydrochloride]",476
2,"Cc1cc(C#N)ccc1-c1ccc2[nH]nc(NC(=O)C3CCN(C)CC3)c2c1 [cpd 113, N-[5-(4-Cyano-2-methylphenyl)-1H-indazol-3-yl]-1-methylpiperidine-4-carboxamide hydrochloride]",534
3,"O=C(Nc1n[nH]c2ccc(-c3cc(-c4nnco4)ccc3Cl)cc12)[C@@H]1CCCNC1 [cpd 59, (3R)-N-{5-[2-Chloro-5-(1,3,4-oxadiazol-2-yl)phenyl]-1H-indazol-3-yl}piperidine-3-carboxamide trifluoroacetate]",57
4,"NCCC(=O)Nc1n[nH]c2ccc(-c3c(Cl)cccc3Cl)cc12 [compound 175, N-[5-(2,6-Dichlorophenyl)-1H-indazol-3-yl]-b-alaninamide hydrochloride]",339
5,"CN1CCC(C(=O)Nc2n[nH]c3ccc(-c4cc([N+](=O)[O-])ccc4F)cc23)CC1 [cpd 115, N-[5-(2-Fluoro-5-nitrophenyl)-1H-indazol-3-yl]-1-methylpiperidine-4-carboxamide hydrochloride]",165
6,"CN(C)C1CC(C(=O)Nc2n[nH]c3ccc(-c4cc(C#N)ccc4Cl)cc23)C1 (stereo not drawn) [compound 147, N-[5-(2-Chloro-5-cyanophenyl)-1H-indazol-3-yl]-3-(dimethylamino)cyclobutanecarboxamide hydrochloride]",108
7,"NCCCN1CCC(C(=O)Nc2n[nH]c3ccc(-c4c(F)cccc4Cl)cc23)CC1 [cpd 66, 1-(3-Aminopropyl)-N-[5-(2-chloro-6-fluorophenyl)-1H-indazol-3-yl]piperidine-4-carboxamide dihydrochloride]",58
8,"CC(C)CN1CCC(C(=O)Nc2n[nH]c3ccc(-c4c(Cl)cccc4Cl)cc23)CC1 [cpd 70, N-[5-(2,6-Dichlorophenyl)-1H-indazol-3-yl]-1-(2-methylpropyl)piperidine-4-carboxamide]",136
9,"CNC1CC(C(=O)Nc2n[nH]c3ccc(-c4cc(C#N)ccc4Cl)cc23)C1 (stereo not drawn) [compound 146, N-[5-(2-Chloro-5-cyanophenyl)-1H-indazol-3-yl]-3-(methylamino)cyclobutanecarboxamide hydrochloride]",23
10,"CN1CCC(C(=O)Nc2n[nH]c3ccc(-c4cc(F)c(F)cc4F)cc23)CC1 [compound 126, 1-Methyl-N-[5-(2,4,5-trifluorophenyl)-1H-indazol-3-yl]piperidine-4-carboxamide hydrochloride]",913
11,"O=C(Nc1n[nH]c2ccc(-c3c(Cl)cccc3Cl)cc12)C12CCN(CC1)CC2 [compound 160, N-[5-(2,6-Dichlorophenyl)-1H-indazol-3-yl]-1-azabicyclo[2.2.2]octane-4-carboxamide]",221
12,"CN1CCC(C(=O)Nc2n[nH]c3ccc(-c4cccc(Cl)c4Cl)cc23)CC1 [cpd 97, N-[5-(2,3-Dichlorophenyl)-1H-indazol-3-yl]-1-methylpiperidine-4-carboxamide hydrochloride]",643
13,"CN1CCC(C(=O)Nc2n[nH]c3ccc(-c4ccccc4Cl)cc23)CC1 [cpd 85, N-[5-(2-Chlorophenyl)-1H-indazol-3-yl]-1-methylpiperidine-4-carboxamide hydrochloride]",393
14,"CN(C)C1CC(C(=O)Nc2n[nH]c3ccc(-c4ccc(O)cc4Cl)cc23)C1 (stereo not drawn) [cpd 62, N-[5-(2-Chloro-4-hydroxyphenyl)-1H-indazol-3-yl]-3-(dimethylamino)cyclobutanecarboxamide hydrochloride]",148
15,"CN1CCC(C(=O)Nc2n[nH]c3ccc(-c4c(Cl)cc(Cl)cc4Cl)cc23)CC1 [cpd 108, 1-Methyl-N-[5-(2,4,6-trichlorophenyl)-1H-indazol-3-yl]piperidine-4-carboxamide hydrochloride]",150
16,"CN1CCC(C(=O)Nc2n[nH]c3ccc(-c4ccc(N)cc4Cl)cc23)CC1 [cpd 107, N-[5-(4-Amino-2-chlorophenyl)-1H-indazol-3-yl]-1-methylpiperidine-4-carboxamide dihydrochloride]",200
